Experimental data published in patent US12570661B2, “Isoform-specific aldehyde dehydrogenase inhibitors” (The Board of Trustees of the Leland Stanford Junior …, priority 2020, dated 2026).

Target: T1, ALDH2 (Homo sapiens, UniProt P05091)
T1 construct: made in house
T1 sequence (P05091 18-517): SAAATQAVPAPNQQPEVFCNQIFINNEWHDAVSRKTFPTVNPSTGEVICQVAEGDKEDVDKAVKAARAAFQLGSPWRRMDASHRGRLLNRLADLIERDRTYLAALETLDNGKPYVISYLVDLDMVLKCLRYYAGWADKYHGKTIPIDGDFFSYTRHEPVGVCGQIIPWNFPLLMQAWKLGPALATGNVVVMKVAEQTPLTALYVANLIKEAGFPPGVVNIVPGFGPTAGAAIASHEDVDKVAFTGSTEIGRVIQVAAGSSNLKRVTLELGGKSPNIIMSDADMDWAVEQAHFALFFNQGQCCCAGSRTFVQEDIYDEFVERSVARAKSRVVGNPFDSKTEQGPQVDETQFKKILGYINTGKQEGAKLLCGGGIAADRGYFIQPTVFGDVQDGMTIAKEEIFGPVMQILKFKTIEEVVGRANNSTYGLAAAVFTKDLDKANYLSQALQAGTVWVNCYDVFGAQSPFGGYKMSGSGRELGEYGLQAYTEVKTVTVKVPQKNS
Test: ALDH2 enzyme kinetics assay
Assay type: biochemical
Details: 50-μM compound concentration
Method: Cloning, expression, and purification of human recombinant ALDH1A1, ALDH1A3, ALDH2, ALDH3A1, ALDH3A2, ALDH4A1, ALDH5A1 and ALDH7A1 isozymes were conducted as described previously (Chen, C. H. et al. (2015) Proc. Natl. Acad. Sci. U.S.A. 112, 3074-3079). Human ALDH1A2 (Origene, SC109995) and ALDH1B1 (T. Hurley, Indiana University) plasmids were cloned into the pET-15b expression vector (Novagen, 69661-3) containing an N-terminal hexahistidine tag. The mitochondria-targeting sequence of ALDH1B1 was also removed. […] The protein concentration for each fraction was measured (500 μL elution volume was collected as one fraction and was immediately mixed with 500 μL glycerol. The protein concentration for each fraction was measured (600 nm Protein Assay Reagent; Thermo Fisher Scientific), and protein-containing fractions were diluted with an equal volume of glycerol and stored at −80° C. Samples from each step were also collected for SDS-PAGE gel analysis. For ALDH1B1 protein co-expression with chaperones, pET-15b-ALDH1B1 and GroEL/GroES (Addgene, plasmid pBB541) plasmids were co-transformed into competent BL21 E. coli cells, which were subsequently grown in 1 L of Luria-Bertani medium containing 100 μg/mL ampicillin and 50 μg/mL spectinomycin at 37° C. […]

`COc1ccccc1-n1cc(-c2ccc(-c3ccccc3)cc2)[n+]2c1CCCCC2` [Imidazolium 2] was tested. Which “inhibition of ALDH2 activity” value did it give?
Its value is “neither imidazolium 1 or 2 could inhibit ALDH2 activity”.
